From patent US20210347823A1, “METHODS OF PHYSICOCHEMICAL-GUIDED PEPTIDE DESIGN AND NOVEL PEPTIDES DERIVED THEREFROM” (Massachusetts Institute of Technology, priority 2018, published 2021)

Tests used:
[1] = test system: Gram-positive bacteria, Gram-negative bacteria and fungi (twelve different strains); test: Liquid growth inhibition MIC against larger panel of microorganisms (MIC average); format: cell-based; details: for MIC Average: average of MIC over twelve different strains; for antimicrobial activity: second-generation analogs, larger panel
Description: FIGS. 5A-5D. Antimicrobial activity of second-generation library of synthetic peptides. FIG. 5A. In vitro activity of Pol-CP—NH2 and second generation of analogs against Gram-positive bacteria (Micrococcus luteus, Staphylococcus aureus, Staphylococcus epidermidis and Bacillus megaterium), Funghi (Candida albicans and Candida tropicalis) and Gram-negative bacteria (Escherichia coli, Enterobacter cloacae and Serratia marcescens). Experiments performed in triplicates. FIG. 5B. MIC (μmol L^−1) average vs fH in TFE/Water solution. FIG. 5C. Graph correlating MIC (μmol L^−1) averages vs H and (FIG. 5D) MIC (μmol L^−1) averages vs μH, where dots above the dashed line represent peptides with lower activity and dots below the dashed line show peptides with higher activity compared to the wild-type, in which one can observe ranges of optimal activity in determined intervals of H and μH values.
Microorganisms. The following strains were used: Micrococcus luteus A270, Staphylococcus aureus ATCC29213, Staphylococcus epidermidis ATCC12228, Bacillus megaterium ATCC10778 Escherichia coli SBS 363, Enterobacter cloacae ®-12, Serratia marcescens ATCC4112, Candida albicans MDM8, Candida tropicalis IOC4560 from Instituto Butanta, Sao Paulo, Brazil, and Escherichia coli BL21, Pseudomonas aeruginosa PA14, Pseudomonas aeruginosa PA01 and Staphylococcus aureus ATCC12600 from Synthetic Biology Group at MIT.
MIC assays. The MIC assays were performed using the broth microdilution method (Wiegand I. et al., Protoc. 3, 163-175 (2008); de la Fuente-Núñez C. et al., Antimicrob. Agents Chemother. 56, 2696-2704 (2012)) in sterile 96-well polypropylene microtiter plates. Peptides were added to the plate as solutions in BM2 minimal medium in concentrations ranging from 0 to 128 ? mol L^−1, and the bacteria were inoculated at a final concentration of 5×10^5 CFU mL^−1 per well. The plates were incubated at 37° C. for 24 h. The MIC was defined as the lowest concentration of compound at which no growth was observed. Additional liquid growth inhibition assays were done in Peptone Broth (PB, 0.5% NaCl, 1% Peptone at pH 7.4) and Potato Dextrose Broth (Invitrogen) were used for antibacterial and antifungal assays, respectively. Briefly, bacteria or fungi were incubated with serial dilutions of polybia-CP and analogs (50-0.09 μmol L^−1) in a 96-well microplate at 37° C. The microbial growth was assessed by measurements in a model 354 Multiskan Ascent microplate reader at A595nm, after 18 and 24 h (bacteria and fungi, respectively) incubation on a model 347CD FANEM incubator. MIC was defined as the minimal inhibitory concentration that prevents 100% of the bacterial growth. All assays were done in triplicate.

P. aeruginosa = test: MIC against P. aeruginosa (strain not given); format: cell-based, Pseudomonas aeruginosa
Description: FIGS. 2A-2E. Design, physicochemical features and activity of Pol-CP—NH2 and Ala-scan analogs. FIG. 2A. Theoretical physicochemical properties of interest of the wild type and Ala-scan analogs, where H denotes hydrophobicity, μH is the hydrophobic moment, q represents the net charge and P/N is the ratio of polar/non-polar residues in the sequence. Top to bottom, left to right the sequences correspond to SEQ ID NOs: 1-13. FIG. 2B. Schematic of the in vitro biological activity experimental design. Briefly, 10^4 bacterial cells and serially diluted peptides (0-128 μmol L^−1) were added to a 96-well plate and incubated at 37° C. One day after the exposure, the solution in each well was measured in a microplate reader (600 nm) to check inhibition of bacteria compared to the untreated controls and presented as heat maps of antimicrobial activities (μmol L^−1) against four bacteria strains: E. coli strain BL21, S. aureus strain ATCC12600 and P. aeruginosa strains PA01, and PA14. Assays were performed in triplicates. FIG. 2C. Graph correlating MIC (μmol L^−1) averages vs H and (FIG. 2D) MIC (μmol L^−1) averages vs μH, where dots […] the dashed line show peptides with higher activity compared to the wild type, in which one can observe ranges of optimal activity in determined intervals of H and μH values. FIG. 2E. […]

[2] = Mouse body weight / toxicity in the skin infection model; format: in vivo, mice; details: for mouse body weight: peptides used at 64 mol L^−1 (so in the source), compared to untreated mice
Description: FIGS. 8A-8D. In vivo activity of Pol-CP—NH2 and its analogs. FIG. 8A. Schematic of the experimental design. Briefly, the back of mice was shaved and an abrasion was generated to damage the stratum corneum and the upper layer of the epidermis. Subsequently, an aliquot of 50 μL containing 5×10^7 CFU of P. aeruginosa in PBS was inoculated over each defined area. One day after the infection, peptides (4 μmol L^−1) were administered to the infected area. Animals were euthanized and the area of scarified skin was excised two and four days post-infection (FIG. 8B) homogenized using a bead beater for 20 minutes (25 Hz), and serially diluted for CFU quantification (****p<0.0001). FIG. 8C. Mouse body weight measurements throughout the experiment normalized by the body weight of non-infected mice. […] FIG. 8D. Longer experiment (four days) using a higher concentration (64 μmol L^−1) of peptides Pol-CP—NH2 and [Lys]'-Pol-CP—NH2 (****p<0.0001).
Scarification Skin Infection Mouse Model. P. aeruginosa strain PA14 was grown to an optical density at 600 nm (OD600) of 1 in tryptic soy broth (TSB) medium. Subsequently cells were washed twice with sterile PBS (pH 7.4, 13,000 rpm for 1 minute), and resuspended to a final concentration of 5×10^7 CFU/50 ? L. To generate skin infection, female CD-1 mice (6 weeks old) were anesthetized with isoflurane and had their backs shaved. A superficial linear skin abrasion was made with a needle in order to damage the stratum corneum and upper-layer of the epidermis. Five minutes after wounding, an aliquot of 50 ? L containing 5×10^7 CFU of bacteria in PBS was inoculated over each defined area containing the scratch with a pipette tip. One day after the infection, peptides were administered to the infected area. Animals were euthanized and the area of scarified skin was excised two and four days post-infection, homogenized using a bead beater for 20 minutes (25 Hz), and serially diluted for CFU quantification. Two independent experiments were performed with 4 mice per group in each condition. Statistical significance was assessed using a one-way ANOVA.

| Substance | MIC Average [1] | MIC against P. aeruginosa (P. aeruginosa; strain not stated) | mouse body weight [2] | antimicrobial activity ([1]; listed as [Lys]'-Pol-CP—NH2) | antimicrobial activity ([1]; listed as [Lys]^7-Pol-CP—NH2) | activity against P. aeruginosa (P. aeruginosa; in vitro, selection of peptides for the mouse model) | toxicity to mice ([2]; single dose) |
| --- | --- | --- | --- | --- | --- | --- | --- |
| H-ILGTILGLLKSL-NH2 [WT, ILGTILGLLKSL-NH2, reference compound] | 16.2 µM | 64 µM | did not change significantly |  |  |  |  |
| H-ILGTILKLLKSL-NH2 [Peptide 16, ILGTILKLLKSL-NH2] | 1.4 µM |  | did not change significantly | impacted favorably both structure and antimicrobial activity | most active | high activity | non-toxic |
